According to publication PMC7307906, “Macrocyclic Modalities Combining Peptide Epitopes and Natural Product Fragments” (Journal of the American Chemical Society, 2020):
Several values for one entry are separate records, joined by “and”; a condition that tells them apart may be missing. Identical values can stand only once. Like-named read-outs stand apart in the source and are kept apart here.

[1] = other bond, Fmoc removal (RP-03), imine cyclization/1,3-dipolar cycloaddition, N-methylmaleimide (RP-04), resin, 4 steps
[2] = other bond, Fmoc removal, intramolecular imine, N-methylmaleimide 1,3-dipolar cycloaddition, resin, 4 steps
[3] = other bond, N-phenylmaleimide (RP-04; imine cyclization/1,3-dipolar cycloaddition), resin, 4 steps
[4] = the molecule shown is the open-chain precursor, other bond, 37-membered ring, CH(OMe)3/Et3N, then 6/LiBr/Et3N, DMF, THF, resin, 25.0 °C, with chain assembly
[5] = other bond, N-methylmaleimide (RP-04; imine cyclization/1,3-dipolar cycloaddition), resin, 4 steps
[6] = the molecule shown is the open-chain precursor, other bond, 28-membered ring, CH(OMe)3/Et3N, then 6/LiBr/Et3N, DMF, THF, resin, 25.0 °C, with chain assembly
[7] = the molecule shown is the open-chain precursor, other bond, 31-membered ring, CH(OMe)3/Et3N, then 7/LiBr/Et3N, DMF, THF, resin, 25.0 °C, with chain assembly
[8] = the molecule shown is the open-chain precursor, other bond, 34-membered ring, CH(OMe)3/Et3N, then 6/LiBr/Et3N, DMF, THF, resin, 25.0 °C, with chain assembly
[9] = the molecule shown is the open-chain precursor, other bond, 31-membered ring, CH(OMe)3/Et3N, then 6/LiBr/Et3N, DMF, THF, resin, 25.0 °C, with chain assembly

Substance: [N-Me-fused-di-pyrrolidine-NMeFDINNNK]G
- ring closure, yield after HPLC [1]: 24%

Substance: [N-Me-fused-di-pyrrolidine-NMeFEEKDINNNVKK]T
- ring closure, yield after HPLC [2]: 2%

Substance: [4-OMePh-pyrrolidinyl-spirooxindole-NMeFDINNNK]G
- ring closure, yield after HPLC (other bond, Fmoc removal (RP-03), imine cyclization/1,3-dipolar cycloaddition, (E)-4-methoxybenzylidene-indolin-2-one (RP-04), resin, 4 steps): 3%

Substance: [N-Ph-fused-di-pyrrolidine-NMeFALFPGFK]G, A2
- ring closure, yield after HPLC (other bond, 37-membered ring, CH(OMe)3/Et3N, then 7/LiBr/Et3N, DMF, THF, resin, 25.0 °C, with chain assembly): 10%

Substance: [N-4-OMePh-fused-di-pyrrolidine-NMeFDINNNK]G
- ring closure, yield after HPLC (other bond, Fmoc removal (RP-03), imine cyclization/1,3-dipolar cycloaddition, N-(4-methoxyphenyl)maleimide (RP-04), resin, 4 steps): 20%

Substance: [N-Ph-fused-di-pyrrolidine-NMeVINNNK]G
- ring closure, yield after HPLC [3]: 7%

Substance: [N-Me-fused-di-pyrrolidine-NMeFRffK]Y, O1
- ring closure, yield after HPLC (other bond, imine formation, then N-methylmaleimide cycloaddition (RP-04), resin, 4 steps): 6% and 7%

Substance: H-Gly-MePhe-Arg-Phe-Phe-Asn-Ala-Phe-Lys(4-formylbenzoyl)-Tyr-resin?
- ring closure, yield after HPLC [4]: 2%

Substance: H-Gly-MePhe-Arg-Phe-Phe-Asn-Ala-Phe-Lys(4-formylbenzoyl)-Gly-resin?
- ring closure, yield after HPLC [4]: 2%
- ring closure, yield after HPLC (the molecule shown is the open-chain precursor, other bond, 37-membered ring, CH(OMe)3/Et3N, then 7/LiBr/Et3N, DMF, THF, resin, 25.0 °C, with chain assembly): 1%

Substance: [N-Me-fused-di-pyrrolidine-NMeFNNNK]G
- ring closure, yield after HPLC [5]: 21%

Substance: [N-Me-fused-di-pyrrolidine-NMeFRffNAK]Y
- ring closure, yield after HPLC [5]: 2%

Substance: H-Gly-MePhe-Arg-Ala-Asn-Lys(4-formylbenzoyl)-Gly-resin?
- ring closure, yield after HPLC [6]: 14%

Substance: H-Gly-MePhe-Arg-dPhe-dPhe-Asn-Lys(4-formylbenzoyl)-Tyr-resin?
- ring closure, yield after HPLC [7]: 3%

Substance: [N-Me-fused-di-pyrrolidine-NMeGDINNNK]G
- ring closure, yield after HPLC (other bond, 34-membered ring, imine formation, then N-methylmaleimide cycloaddition (RP-04), resin, with chain assembly): 8%

Substance: Y[CRFFNAFC]Y
- ring closure, yield after HPLC (disulfide bond, 26-membered ring, DMSO/AcOH, DMSO/AcOH/H2O, 1.56 mM, 25.0 °C, 3 steps): 25%

Substance: [N-Ph-fused-di-pyrrolidine-NMeVDINNNK]G
- ring closure, yield after HPLC (other bond, Fmoc removal, intramolecular imine, N-phenylmaleimide 1,3-dipolar cycloaddition, resin, 4 steps): 2% and 4%

Substance: [N-Me-fused-di-pyrrolidine-NMeFRffNAFK]G
- ring closure, yield after HPLC [1]: 4%

Substance: [N-Ph-fused-di-pyrrolidine-NMeFRFFK], N3
- ring closure, yield after HPLC (other bond, imine formation, then N-phenylmaleimide cycloaddition (RP-04), resin, with chain assembly): 2%

Substance: H-Gly-Phe-Asp-Ile-Asn-Asn-Asn-Lys(4-formylbenzoyl)-Gly-resin?
- ring closure, yield after HPLC [8]: 2%

Substance: [N-Me-fused-di-pyrrolidine-NMeFDINNNDap]G
- ring closure, yield after HPLC (other bond, 31-membered ring, imine formation, then N-methylmaleimide cycloaddition (RP-04), resin, with chain assembly): 4%

Substance: H-Gly-MePhe-Arg-dPhe-dPhe-Asn-Ala-Lys(4-formylbenzoyl)-Gly-resin?
- ring closure, yield after HPLC (the molecule shown is the open-chain precursor, other bond, 34-membered ring, CH(OMe)3/Et3N, then 11/LiBr/Et3N, DMF, THF, resin, 25.0 °C, with chain assembly): 5%

Substance: [N-Ph-fused-di-pyrrolidine-NMeFRFFK]Y, N1
- ring closure, yield after HPLC (other bond, imine formation, then N-phenylmaleimide cycloaddition (RP-04), resin, 4 steps): 16% and 10%

Substance: [N-Ph-fused-di-pyrrolidine-NMeFRFFNAK]Y
- ring closure, yield after HPLC [3]: 2%

Substance: H-Gly-MePhe-Ile-Asn-Asn-Asn-Lys(4-formylbenzoyl)-Gly-resin?
- ring closure, yield after HPLC [9]: 3%

Substance: [N-Me-fused-di-pyrrolidine-NMeFINNNK]G
- ring closure, yield after HPLC [2]: 3%

Substance: [N-Me-fused-di-pyrrolidine-NMeFRffNK]G
- ring closure, yield after HPLC (other bond, Fmoc removal (RP-03), imine cyclization/N-methylmaleimide 1,3-dipolar cycloaddition (RP-04), resin, 3 steps): 3%

Substance: [N-Me-fused-di-pyrrolidine-NMeFRFFNAK]Y
- ring closure, yield after HPLC [5]: 3%

Substance: H-Gly-MePhe-Arg-dPhe-dPhe-Asn-Ala-Phe-Lys(4-formylbenzoyl)-Gly-resin?
- ring closure, yield after HPLC [4]: 4%

Substance: [N-4-OMePh-fused-di-pyrrolidine-NMeFRffNK]G
- ring closure, yield after HPLC (other bond, Fmoc removal (RP-03), imine cyclization/maleimide 8 1,3-dipolar cycloaddition (RP-04), resin, 3 steps): 4%

Substance: H-Gly-MePhe-Arg-dPhe-dPhe-Asn-Lys(4-formylbenzoyl)-Gly-resin?
- ring closure, yield after HPLC [9]: 2%
- ring closure, yield after HPLC [7]: 1%
- ring closure, yield after HPLC (the molecule shown is the open-chain precursor, other bond, 31-membered ring, CH(OMe)3/Et3N, then 8/LiBr/Et3N, DMF, THF, resin, 25.0 °C, with chain assembly): 4%

Substance: [N-Ph-fused-di-pyrrolidine-NMeFRffNK]G
- ring closure, yield after HPLC (other bond, Fmoc removal (RP-03), imine cyclization/N-phenylmaleimide 1,3-dipolar cycloaddition (RP-04), resin, 3 steps): 1%

Substance: [N-Me-fused-di-pyrrolidine-NMeFGLGFK]F
- ring closure, yield after HPLC [5]: 5%

Substance: H-Gly-MePhe-Asp-Ile-Asn-Asn-Asn-Lys(4-formylbenzoyl)-Gly-resin?
- ring closure, yield after HPLC (the molecule shown is the open-chain precursor, other bond, 34-membered ring, imine formation, then 5-benzylidene-1,3-dimethylbarbiturate (14) cycloaddition (RP-04), resin, 4 steps): 11%

Substance: [4-F-Ph-pyrrolidinyl-spirooxindole-NMeFDINNNK]G
- ring closure, yield after HPLC (other bond, Fmoc removal (RP-03), imine cyclization/1,3-dipolar cycloaddition, (E)-4-fluorobenzylidene-indolin-2-one, Cu/BINAP (RP-04), resin, 4 steps): 6%

Substance: H-Gly-MePhe-Asn-Asn-Asn-Lys(4-formylbenzoyl)-Gly-resin?
- ring closure, yield after HPLC [6]: 12%

Substance: H-Gly-dMePhe-Asp-Ile-Asn-Asn-Asn-Lys(4-formylbenzoyl)-Gly-resin
- ring closure, yield after HPLC [8]: 5%

Substance: [N-Me-fused-di-pyrrolidine-NMeFAHASNK]G
- ring closure, yield after HPLC [5]: 3%
